30 compounds from US9012443B2 (Amgen Inc., priority 2011, dated 2015) can be followed below.

The target of data set [1] is Nav 1.7 (Homo sapiens (Human), UniProt Q15858). Description: Nav 1.7 in vitro PX assay (PatchXpress whole cell voltage clamp). The note with it: 293 cells, human Nav1.7, partially inactivated state; read-out: Nav1.7 PX IC50 IP. Type of data set: cell-based. The gist of the method:
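HEK293 cells stably expressing human Nav1.7, whole-cell voltage clamp on PatchXpress, held at potential giving 20–50% inactivation; current elicited by 20 msec pulse to −10 mV.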

Data set [2] deals with Nav 1.5 (Homo sapiens (Human), UniProt Q14524). Description: Nav 1.5 in vitro PX assay (PatchXpress whole cell voltage clamp). In kind it is cell-based. The note with it: 293 cells stably transfected with Nav 1.5; second part of table; read-out: Nav1.5 PX IC50. The gist of the method: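 HEK293 cells stably expressing Nav 1.5, whole-cell voltage clamp held at −50 mV; 20 msec test pulses to 0 mV at 0.1 Hz, each preceded by a step to −120 mV.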
Nav 1.5, sequence (Q14524 whole entry): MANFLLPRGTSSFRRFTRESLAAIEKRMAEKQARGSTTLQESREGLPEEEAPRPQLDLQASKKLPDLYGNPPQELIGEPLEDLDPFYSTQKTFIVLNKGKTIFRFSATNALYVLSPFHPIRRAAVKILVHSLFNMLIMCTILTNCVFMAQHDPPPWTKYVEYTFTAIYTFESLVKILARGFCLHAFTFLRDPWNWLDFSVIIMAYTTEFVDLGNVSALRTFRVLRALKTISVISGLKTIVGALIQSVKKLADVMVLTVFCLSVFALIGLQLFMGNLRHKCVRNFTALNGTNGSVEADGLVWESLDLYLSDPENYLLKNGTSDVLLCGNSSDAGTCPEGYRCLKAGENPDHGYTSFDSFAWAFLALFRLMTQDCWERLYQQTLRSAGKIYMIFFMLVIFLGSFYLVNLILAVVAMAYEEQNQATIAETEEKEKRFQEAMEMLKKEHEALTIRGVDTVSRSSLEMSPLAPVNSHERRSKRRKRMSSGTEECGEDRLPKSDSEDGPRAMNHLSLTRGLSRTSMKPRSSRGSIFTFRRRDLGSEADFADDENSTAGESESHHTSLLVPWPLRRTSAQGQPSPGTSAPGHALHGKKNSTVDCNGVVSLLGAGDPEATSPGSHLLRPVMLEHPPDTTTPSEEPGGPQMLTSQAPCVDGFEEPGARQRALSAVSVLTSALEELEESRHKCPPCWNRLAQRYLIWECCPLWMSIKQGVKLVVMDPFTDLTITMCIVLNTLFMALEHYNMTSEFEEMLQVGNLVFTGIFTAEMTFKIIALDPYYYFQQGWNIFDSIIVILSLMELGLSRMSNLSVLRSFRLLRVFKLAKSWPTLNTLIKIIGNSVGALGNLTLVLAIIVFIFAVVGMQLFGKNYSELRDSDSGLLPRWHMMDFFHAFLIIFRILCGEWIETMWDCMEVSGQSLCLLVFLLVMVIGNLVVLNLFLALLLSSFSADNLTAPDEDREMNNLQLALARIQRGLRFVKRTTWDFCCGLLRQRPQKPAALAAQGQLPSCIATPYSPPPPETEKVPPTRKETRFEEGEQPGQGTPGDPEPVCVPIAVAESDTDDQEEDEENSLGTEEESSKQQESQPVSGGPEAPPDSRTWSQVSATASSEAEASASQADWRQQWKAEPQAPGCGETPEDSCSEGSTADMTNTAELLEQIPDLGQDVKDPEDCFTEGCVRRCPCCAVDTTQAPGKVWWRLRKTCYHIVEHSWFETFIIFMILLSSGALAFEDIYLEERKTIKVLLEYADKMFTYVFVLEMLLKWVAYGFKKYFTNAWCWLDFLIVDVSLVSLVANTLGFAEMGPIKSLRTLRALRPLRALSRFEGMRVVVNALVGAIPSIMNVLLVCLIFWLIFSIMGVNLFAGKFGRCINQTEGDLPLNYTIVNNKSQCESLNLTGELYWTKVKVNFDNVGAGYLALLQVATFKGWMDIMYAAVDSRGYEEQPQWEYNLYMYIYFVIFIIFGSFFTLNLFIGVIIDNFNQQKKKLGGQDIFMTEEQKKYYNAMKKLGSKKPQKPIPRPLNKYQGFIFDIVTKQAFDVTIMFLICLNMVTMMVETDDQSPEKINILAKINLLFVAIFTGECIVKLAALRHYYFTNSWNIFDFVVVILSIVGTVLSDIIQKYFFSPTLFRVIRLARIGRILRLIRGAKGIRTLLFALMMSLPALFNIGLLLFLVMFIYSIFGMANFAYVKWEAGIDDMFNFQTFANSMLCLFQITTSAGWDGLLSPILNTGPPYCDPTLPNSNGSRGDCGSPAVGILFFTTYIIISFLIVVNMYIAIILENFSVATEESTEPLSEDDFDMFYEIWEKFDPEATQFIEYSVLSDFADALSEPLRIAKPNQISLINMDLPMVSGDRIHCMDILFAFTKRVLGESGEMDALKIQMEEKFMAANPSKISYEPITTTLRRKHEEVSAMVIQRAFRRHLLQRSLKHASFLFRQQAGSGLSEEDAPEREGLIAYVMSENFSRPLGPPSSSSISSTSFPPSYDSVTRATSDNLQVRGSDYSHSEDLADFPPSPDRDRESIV

Molecules are shown by their SMILES.

Nav 1.7, sequence (Q15858 whole entry): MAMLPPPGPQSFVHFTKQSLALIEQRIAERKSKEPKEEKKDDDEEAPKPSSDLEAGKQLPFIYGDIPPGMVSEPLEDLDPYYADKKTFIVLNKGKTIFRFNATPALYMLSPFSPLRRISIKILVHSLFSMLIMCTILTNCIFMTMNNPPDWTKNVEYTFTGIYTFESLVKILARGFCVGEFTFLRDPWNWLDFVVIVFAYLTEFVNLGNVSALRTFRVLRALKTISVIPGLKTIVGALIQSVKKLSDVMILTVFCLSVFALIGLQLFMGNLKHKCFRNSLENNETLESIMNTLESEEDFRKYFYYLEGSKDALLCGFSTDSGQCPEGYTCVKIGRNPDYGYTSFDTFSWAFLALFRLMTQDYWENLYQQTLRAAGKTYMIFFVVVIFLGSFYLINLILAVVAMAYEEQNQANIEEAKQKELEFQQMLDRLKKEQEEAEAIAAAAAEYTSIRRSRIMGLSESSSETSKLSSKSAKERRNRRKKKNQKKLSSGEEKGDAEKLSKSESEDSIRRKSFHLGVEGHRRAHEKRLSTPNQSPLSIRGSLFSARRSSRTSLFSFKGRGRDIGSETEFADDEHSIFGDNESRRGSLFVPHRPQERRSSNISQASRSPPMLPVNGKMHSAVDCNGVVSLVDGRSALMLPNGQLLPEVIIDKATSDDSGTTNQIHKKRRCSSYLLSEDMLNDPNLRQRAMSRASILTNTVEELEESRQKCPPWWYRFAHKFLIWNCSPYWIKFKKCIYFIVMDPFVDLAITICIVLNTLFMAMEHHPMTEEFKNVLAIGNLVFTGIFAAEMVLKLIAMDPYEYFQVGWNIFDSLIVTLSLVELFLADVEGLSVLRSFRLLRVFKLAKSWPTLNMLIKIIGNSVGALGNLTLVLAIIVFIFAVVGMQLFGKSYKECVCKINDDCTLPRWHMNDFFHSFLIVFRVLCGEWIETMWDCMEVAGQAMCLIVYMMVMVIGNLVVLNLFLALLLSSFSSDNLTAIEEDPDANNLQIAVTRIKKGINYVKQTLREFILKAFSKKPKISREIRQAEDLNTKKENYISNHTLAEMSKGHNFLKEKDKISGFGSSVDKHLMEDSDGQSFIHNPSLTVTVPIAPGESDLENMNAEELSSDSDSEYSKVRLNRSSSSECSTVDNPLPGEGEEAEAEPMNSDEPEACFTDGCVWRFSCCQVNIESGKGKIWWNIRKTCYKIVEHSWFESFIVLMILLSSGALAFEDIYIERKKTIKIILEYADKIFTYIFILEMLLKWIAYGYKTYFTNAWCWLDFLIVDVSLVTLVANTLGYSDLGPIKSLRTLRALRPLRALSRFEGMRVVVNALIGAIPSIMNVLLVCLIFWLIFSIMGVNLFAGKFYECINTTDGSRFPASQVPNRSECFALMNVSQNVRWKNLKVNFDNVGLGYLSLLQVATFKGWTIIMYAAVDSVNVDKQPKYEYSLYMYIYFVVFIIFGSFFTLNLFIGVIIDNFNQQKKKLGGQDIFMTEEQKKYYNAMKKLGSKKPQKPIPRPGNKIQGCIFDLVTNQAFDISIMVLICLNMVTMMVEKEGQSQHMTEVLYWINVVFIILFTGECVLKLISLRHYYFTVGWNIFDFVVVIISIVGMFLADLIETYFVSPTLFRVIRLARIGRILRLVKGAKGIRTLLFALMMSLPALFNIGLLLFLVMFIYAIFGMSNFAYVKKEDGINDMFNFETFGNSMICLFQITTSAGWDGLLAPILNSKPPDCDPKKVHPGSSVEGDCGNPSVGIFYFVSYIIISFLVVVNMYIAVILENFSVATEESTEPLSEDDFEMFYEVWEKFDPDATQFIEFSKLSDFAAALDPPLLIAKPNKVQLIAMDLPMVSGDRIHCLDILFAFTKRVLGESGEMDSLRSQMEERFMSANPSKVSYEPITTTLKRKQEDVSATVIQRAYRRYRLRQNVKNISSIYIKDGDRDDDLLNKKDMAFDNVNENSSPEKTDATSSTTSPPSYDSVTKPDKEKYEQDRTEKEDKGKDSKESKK

In general, IC50 refers to the midpoint of a concentration-inhibition curve. Consider `COc1ccc(-c2cccc(C(F)(F)F)c2)cc1-c1nccc2cc(S(=O)(=O)Nc3ccncn3)ccc12` [Example 349, 1-(4-METHOXY-3′-(TRIFLUOROMETHYL)-[1,1′-BIPHENYL]-3-YL)-N-(PYRIMIDIN-4-YL)ISOQUINOLINE-6-SULFONAMIDE], for which the IC50 was 38 nM in data set [1] and over 30000 nM in data set [2].

As for `COc1cc(C(F)(F)F)ccc1-c1nccc2cc(S(=O)(=O)Nc3cscn3)ccc12` [Example 497, 1-(2-METHOXY-4-(TRIFLUOROMETHYL)PHENYL)-N-(THIAZOL-4-YL)ISOQUINOLINE-6-SULFONAMIDE], the IC50 was 786 nM in data set [1] and over 30000 nM in data set [2].

For `COc1cc(-c2cc(F)cc(F)c2)ccc1-c1nccc2cc(S(=O)(=O)Nc3cc(C)ncn3)ccc12` [Example 371, 1-(3′,5′-DIFLUORO-3-METHOXY-[1,1′-BIPHENYL]-4-YL)-N-(6-METHYLPYRIMIDIN-4-YL)ISOQUINOLINE-6-SULFONAMIDE], the 50% inhibitory concentration (IC50) in data set [1] is 545 nM; in data set [2] it was over 30000 nM.

As for `COc1cc(Cl)c(Cl)cc1-c1nccc2cc(S(=O)(=O)Nc3nccs3)ccc12` [Example 177, 1-(4,5-DICHLORO-2-METHOXYPHENYL)-N-(THIAZOL-2-YL)ISOQUINOLINE-6-SULFONAMIDE], the IC50 was 500 nM in data set [1] and over 30000 nM in data set [2].

As for `COc1cc(Cl)c(C#N)cc1-c1nccc2cc(S(=O)(=O)Nc3nncs3)ccc12` [Example 337, 1-(4-CHLORO-5-CYANO-2-METHOXYPHENYL)-N-(1,3,4-THIADIAZOL-2-YL)ISOQUINOLINE-6-SULFONAMIDE], the IC50 in data set [1] is 388 nM; in data set [2] it was over 30000 nM.

On to `COc1cc(-c2cccc(F)c2)ccc1-c1nccc2cc(S(=O)(=O)Nc3nncs3)ccc12` [Example 354, 1-(3′-FLUORO-3-METHOXY-[1,1′-BIPHENYL]-4-YL)-N-(1,3,4-THIADIAZOL-2-YL)ISOQUINOLINE-6-SULFONAMIDE 2,2,2-TRIFLUOROACETATE], for which the IC50 in data set [1] was 110 nM; in data set [2], over 30000 nM.

Consider `Cc1cc(Cl)ccc1-c1ccnc2cc(S(=O)(=O)Nc3ncns3)ccc12` [Example 322], for which the results for the IC50 in data set [1] and in data set [2] were 333 nM and over 30000 nM, respectively.

Turning to `COc1ccccc1-c1ncnc2cc(S(=O)(=O)Nc3nccs3)ccc12` [Example 272, 4-(2-METHOXYPHENYL)-N-(THIAZOL-2-YL)QUINAZOLINE-7-SULFONAMIDE], the IC50 was 460 nM in data set [1] and over 30000 nM in data set [2].

For `COc1cc(F)ccc1-c1nccc2cc(S(=O)(=O)Nc3nccs3)ccc12` [Example 405, 1-(4-FLUORO-2-METHOXYPHENYL)-N-(THIAZOL-2-YL)ISOQUINOLINE-6-SULFONAMIDE], the IC50 in data set [1] is 442 nM; in data set [2] it was over 30000 nM.

`COc1cc(-c2ccc(F)c(C)c2)ccc1-c1nccc2cc(S(=O)(=O)Nc3ccncn3)ccc12` [Example 488, 1-(4′-FLUORO-3-METHOXY-3′-METHYL-[1,1′-BIPHENYL]-4-YL)-N-(PYRIMIDIN-4-YL)ISOQUINOLINE-6-SULFONAMIDE]: the IC50 is 99 nM in data set [1] and over 30000 nM in data set [2].

Regarding `COc1ccc(-c2cccc(F)c2)cc1-c1nccc2cc(S(=O)(=O)Nc3nncs3)ccc12` [Example 345, 1-(3′-FLUORO-4-METHOXY-[1,1′-BIPHENYL]-3-YL)-N-(1,3,4-THIADIAZOL-2-YL)ISOQUINOLINE-6-SULFONAMIDE], the figures for the half-inhibitory concentration (IC50) in data set [1] and in data set [2] were 75 nM and over 30000 nM, respectively.

On to `COc1cc(C(F)F)c(C2CC2)cc1-c1nccc2cc(S(=O)(=O)Nc3ccncn3)ccc12` [Example 459, 1-(5-CYCLOPROPYL-4-(DIFLUOROMETHYL)-2-METHOXYPHENYL)-N-(PYRIMIDIN-4-YL)ISOQUINOLINE-6-SULFONAMIDE], for which the figures for the concentration for half-maximal inhibition (IC50) in data set [1] and in data set [2] were 532 nM and over 30000 nM, respectively.

Take `COc1cc(-c2cccc(F)c2)c(F)cc1-c1nccc2cc(S(=O)(=O)Nc3nncs3)ccc12` [Example 366, 1-(2,3′-DIFLUORO-5-METHOXY-[1,1′-BIPHENYL]-4-YL)-N-(1,3,4-THIADIAZOL-2-YL)ISOQUINOLINE-6-SULFONAMIDE]: the half-maximal inhibitory concentration (IC50) in data set [1] is 48 nM; in data set [2] it was over 30000 nM.

Turning to `COc1cc(-c2cccc(F)c2)c(Cl)cc1-c1nccc2cc(S(=O)(=O)Nc3ccncn3)ccc12` [Example 333, 1-(2-CHLORO-3′-FLUORO-5-METHOXY-[1,1′-BIPHENYL]-4-YL)-N-(PYRIMIDIN-4-YL)ISOQUINOLINE-6-SULFONAMIDE], the figures for the IC50 in data set [1] and in data set [2] were 75 nM and 20300 nM, respectively.

As to `COc1cc(-c2ccc(F)cc2)ccc1-c1nccc2cc(S(=O)(=O)Nc3ccncn3)ccc12` [Example 350, 1-(4′-FLUORO-3-METHOXY-[1,1′-BIPHENYL]-4-YL)-N-(PYRIMIDIN-4-YL)ISOQUINOLINE-6-SULFONAMIDE], the IC50 was 161 nM in data set [1] and over 30000 nM in data set [2].

Regarding `COc1cc(-c2ccc(C)c(Cl)c2)ccc1-c1nccc2cc(S(=O)(=O)Nc3ccncn3)ccc12` [Example 494, 1-(3′-CHLORO-3-METHOXY-4′-METHYL-[1,1′-BIPHENYL]-4-YL)-N-(PYRIMIDIN-4-YL)ISOQUINOLINE-6-SULFONAMIDE], the IC50 in data set [1] is 78 nM; in data set [2] it was over 30000 nM.

With `COc1ccccc1-c1ccnc2cc(S(=O)(=O)Nc3ncns3)ccc12` [Example 320, 4-(2-METHOXYPHENYL)-N-(1,2,4-THIADIAZOL-5-YL)QUINOLINE-7-SULFONAMIDE 2,2,2-TRIFLUOROACETATE], the IC50 was 155 nM in data set [1] and over 30000 nM in data set [2].

On to `COc1ccccc1-c1ccc(-c2nccc3cc(S(=O)(=O)Nc4ccncn4)ccc23)c(OC)c1` [Example 466, 1-(2′,3-DIMETHOXY-[1,1′-BIPHENYL]-4-YL)-N-(PYRIMIDIN-4-YL)ISOQUINOLINE-6-SULFONAMIDE], for which the figures for the IC50 in data set [1] and in data set [2] were 227 nM and over 30000 nM, respectively.

For `COc1cc(-c2ccccc2C)ccc1-c1nccc2cc(S(=O)(=O)Nc3ccncn3)ccc12` [Example 441, 1-(3-METHOXY-2′-METHYL-[1,1′-BIPHENYL]-4-YL)-N-(PYRIMIDIN-4-YL)ISOQUINOLINE-6-SULFONAMIDE], the values for the IC50 in data set [1] and in data set [2] were 77 nM and over 30000 nM, respectively.

As for `COc1ccc(-c2cccc(F)c2)cc1-c1nccc2cc(S(=O)(=O)Nc3ncns3)ccc12` [Example 347, 1-(3′-FLUORO-4-METHOXY-[1,1′-BIPHENYL]-3-YL)-N-(1,2,4-THIADIAZOL-5-YL)ISOQUINOLINE-6-SULFONAMIDE], the concentration for half-maximal inhibition (IC50) is 40 nM in data set [1] and over 30000 nM in data set [2].

With `COc1cc(-c2cccc(C)c2)ccc1-c1nccc2cc(S(=O)(=O)Nc3ccncn3)ccc12` [Example 442, 1-(3-METHOXY-3′-METHYL-[1,1′-BIPHENYL]-4-YL)-N-(PYRIMIDIN-4-YL)ISOQUINOLINE-6-SULFONAMIDE], the results for the IC50 in data set [1] and in data set [2] were 87 nM and over 30000 nM, respectively.

On to `COc1cc(CC(C)(C)C)ccc1-c1nccc2cc(S(=O)(=O)Nc3ccncn3)ccc12` [Example 360, 1-(2-METHOXY-4-NEOPENTYLPHENYL)-N-(PYRIMIDIN-4-YL)ISOQUINOLINE-6-SULFONAMIDE], for which the IC50 was 513 nM in data set [1] and over 30000 nM in data set [2].

On to `COc1ccc(Cl)cc1-c1nccc2cc(S(=O)(=O)Nc3ncns3)ccc12` [Example 346, 1-(5-CHLORO-2-METHOXYPHENYL)-N-(1,2,4-THIADIAZOL-5-YL)ISOQUINOLINE-6-SULFONAMIDE], for which the IC50 in data set [1] is 132 nM; in data set [2] it was over 30000 nM.

For `COc1cc(-c2cccc(F)c2)c(Cl)cc1-c1nccc2cc(S(=O)(=O)Nc3nncs3)ccc12` [Example 332, 1-(2-CHLORO-3′-FLUORO-5-METHOXY-[1,1′-BIPHENYL]-4-YL)-N-(1,3,4-THIADIAZOL-2-YL)ISOQUINOLINE-6-SULFONAMIDE], the IC50 in data set [1] came out at 28 nM; in data set [2], 20700 nM.

Take `COc1cc(C(F)(F)F)ccc1-c1ccnc2cc(S(=O)(=O)Nc3nccs3)c(C)cc12` [Example 326, 4-(2-METHOXY-4-(TRIFLUOROMETHYL)PHENYL)-6-METHYL-N-(THIAZOL-2-YL)QUINOLINE-7-SULFONAMIDE]: the values for the IC50 in data set [1] and in data set [2] were 660 nM and 2500 nM, respectively.

As for `N#CCOc1cc(Cl)ccc1-c1nccc2cc(S(=O)(=O)Nc3nccs3)ccc12` [Example 373, 1-(4-CHLORO-2-(CYANOMETHOXY)PHENYL)-N-(THIAZOL-2-YL)ISOQUINOLINE-6-SULFONAMIDE 2,2,2-TRIFLUOROACETATE], the IC50 in data set [1] is 153 nM; in data set [2] it was over 30000 nM.

On to `COc1cc(Oc2ccc(F)cc2)ccc1-c1nccc2cc(S(=O)(=O)Nc3ccncn3)ccc12` [Example 462, 1-(4-(4-FLUOROPHENOXY)-2-METHOXYPHENYL)-N-(PYRIMIDIN-4-YL)ISOQUINOLINE-6-SULFONAMIDE], for which the IC50 is 203 nM in data set [1] and over 30000 nM in data set [2].

Regarding `COc1cc(-c2ccc(F)c(F)c2)c(F)cc1-c1nccc2cc(S(=O)(=O)Nc3nncs3)ccc12` [Example 365, N-(1,3,4-THIADIAZOL-2-YL)-1-(2,3′,4′-TRIFLUORO-5-METHOXY-[1,1′-BIPHENYL]-4-YL)ISOQUINOLINE-6-SULFONAMIDE], the IC50 in data set [1] was 41 nM; in data set [2], over 30000 nM.

On to `COc1cc(-c2ccc(C)c(F)c2)ccc1-c1nccc2cc(S(=O)(=O)Nc3ccncn3)ccc12` [Example 471, 1-(3′-FLUORO-3-METHOXY-4′-METHYL-[1,1′-BIPHENYL]-4-YL)-N-(PYRIMIDIN-4-YL)ISOQUINOLINE-6-SULFONAMIDE], for which the IC50 in data set [1] was 56 nM; in data set [2] it was over 30000 nM.

Take `COc1cc(-c2cccc(F)c2)ccc1-c1ncnc2cc(S(=O)(=O)Nc3ncns3)ccc12` [Example 525, 4-(3′-FLUORO-3-METHOXY-[1,1′-BIPHENYL]-4-YL)-N-(1,2,4-THIADIAZOL-5-YL)QUINAZOLINE-7-SULFONAMIDE]: the IC50 in data set [1] is 58 nM; in data set [2], over 30000 nM.
